PubChem BioAssay AID1963983 (Molecular Pharmacology Branch, DTP, NCI, 2024)

System: 186277-243-T-J2-PDC multi-cell spheroid viability
Experiment: Anticancer human tumor 186277-243-T-J2-PDC patient-derived colon adenocarcinoma cell line growth inhibition [PI3K]
Conditions: for IC50: curve of first compound; for viability, T/C: stronger effect = lower value; active means viability on the fitted dose curve at most 10% of control; inactive means the rest
How it was run: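 Complex 3D spheroids (cancer cells + endothelial HUVEC + mesenchymal stem cells); drug pairs of targeted agent x inavolisib/alpelisib/duvelisib/copanlisib; half-log series from ~Cmax, max 10 microM if Cmax unknown; endpoint viability.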

[1] = second compound 0.0316 µM, first compound 0.0316 µM
[2] = second compound 0.0316 µM, first compound 0.1 µM
[3] = second compound 0.0316 µM, first compound 0.316 µM
[4] = second compound 0.0316 µM, first compound 1 µM
[5] = second compound 0.1 µM, first compound 0.0316 µM
[6] = second compound 0.1 µM, first compound 0.1 µM
[7] = second compound 0.1 µM, first compound 0.316 µM
[8] = second compound 0.1 µM, first compound 1 µM
[9] = second compound 0.316 µM, first compound 0.0316 µM
[10] = second compound 0.316 µM, first compound 0.1 µM
[11] = second compound 0.316 µM, first compound 0.316 µM
[12] = second compound 0.316 µM, first compound 1 µM
[13] = second compound 1 µM, first compound 0.0316 µM
[14] = second compound 1 µM, first compound 0.1 µM
[15] = second compound 1 µM, first compound 0.316 µM
[16] = second compound 1 µM, first compound 1 µM
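Further: spheroids exposed to compounds for seven days before viability reading.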
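Wherever viability, T/C is given: 100% = DMSO vehicle control viability.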

CCN1CCN(Cc2ccc(Nc3ncc(F)c(-c4cc(F)c5nc(C)n(C(C)C)c5c4)n3)nc2)CC1 + Cc1nc(NC(=O)N2CCCC2C(N)=O)sc1-c1ccnc(C(C)(C)C(F)(F)F)c1
> 1 µM: IC50 (second compound 0.0316 µM) | IC50 (second compound 0.1 µM) | IC50 (second compound 0.316 µM) | IC50 (second compound 1 µM)
< 0.00316 µM: IC50 (second compound 3.16 µM) | IC50 (second compound 10 µM)
inactive: viability, T/C (second compound 0.0316 µM, first compound 0.00316 µM) 96.7% | viability, T/C (second compound 0.0316 µM, first compound 0.01 µM) 116% | viability, T/C [1] 107% | viability, T/C [2] 139% | viability, T/C [3] 147% | viability, T/C [4] 137% | viability, T/C (second compound 0.1 µM, first compound 0.00316 µM) 97.4% | viability, T/C (second compound 0.1 µM, first compound 0.01 µM) 93% | viability, T/C [5] 105% | viability, T/C [6] 127% | viability, T/C [7] 145% | viability, T/C [8] 124% | viability, T/C (second compound 0.316 µM, first compound 0.00316 µM) 97.9% | viability, T/C (second compound 0.316 µM, first compound 0.01 µM) 114% | viability, T/C [9] 104% | viability, T/C [10] 103% | viability, T/C [11] 116% | viability, T/C [12] 92.5% | viability, T/C (second compound 1 µM, first compound 0.00316 µM) 101% | viability, T/C (second compound 1 µM, first compound 0.01 µM) 90.2% | viability, T/C [13] 77.9% | viability, T/C [14] 78.1% | viability, T/C [15] 74% | viability, T/C [16] 62.8% | viability, T/C (second compound 3.16 µM, first compound 0.00316 µM) 49.8% | viability, T/C (second compound 3.16 µM, first compound 0.01 µM) 47.5% | viability, T/C (second compound 3.16 µM, first compound 0.0316 µM) 42.1% | viability, T/C (second compound 3.16 µM, first compound 0.1 µM) 37% | viability, T/C (second compound 3.16 µM, first compound 0.316 µM) 41.4% | viability, T/C (second compound 3.16 µM, first compound 1 µM) 28.6% | viability, T/C (second compound 10 µM, first compound 0.00316 µM) 15.8% | viability, T/C (second compound 10 µM, first compound 0.01 µM) 14.2% | viability, T/C (second compound 10 µM, first compound 0.0316 µM) 10.7% | viability, T/C (second compound 10 µM, first compound 0.1 µM) 9% | viability, T/C (second compound 10 µM, first compound 0.316 µM) 12.5% | viability, T/C (second compound 10 µM, first compound 1 µM) 12%

C[C@@H](NC(=O)c1ncnc(N)c1Cl)c1ncc(C(=O)Nc2cc(C(F)(F)F)c(Cl)cn2)s1 + COc1c(OCCCN2CCOCC2)ccc2c3n(c(=NC(=O)c4cnc(N)nc4)nc12)CCN3
8.02 µM: IC50 (second compound 0.01 µM)
active: viability, T/C (second compound 0.0316 µM, first compound 10 µM) 5.51% | viability, T/C (second compound 0.1 µM, first compound 3.16 µM) 7.38% | viability, T/C (second compound 0.1 µM, first compound 10 µM) 4.45% | viability, T/C [9] 7.07% | viability, T/C [10] 7.19% | viability, T/C [11] 7.95% | viability, T/C [12] 6.31% | viability, T/C (second compound 0.316 µM, first compound 3.16 µM) 1.83% | viability, T/C (second compound 0.316 µM, first compound 10 µM) 1.23% | viability, T/C [13] 4.1% | viability, T/C [14] 2.89% | viability, T/C [15] 2.41% | viability, T/C [16] 2.48% | viability, T/C (second compound 1 µM, first compound 3.16 µM) 1.54% | viability, T/C (second compound 1 µM, first compound 10 µM) 0.23%
inactive: viability, T/C (second compound 0.00316 µM, first compound 0.0316 µM) 97.9% | viability, T/C (second compound 0.00316 µM, first compound 0.1 µM) 94% | viability, T/C (second compound 0.00316 µM, first compound 0.316 µM) 107% | viability, T/C (second compound 0.00316 µM, first compound 1 µM) 90.4% | viability, T/C (second compound 0.00316 µM, first compound 3.16 µM) 108% | viability, T/C (second compound 0.00316 µM, first compound 10 µM) 67.7% | viability, T/C (second compound 0.01 µM, first compound 0.0316 µM) 128% | viability, T/C (second compound 0.01 µM, first compound 0.1 µM) 102% | viability, T/C (second compound 0.01 µM, first compound 0.316 µM) 113% | viability, T/C (second compound 0.01 µM, first compound 1 µM) 96.9% | viability, T/C (second compound 0.01 µM, first compound 3.16 µM) 98.4% | viability, T/C (second compound 0.01 µM, first compound 10 µM) 38.7% | viability, T/C [1] 87.7% | viability, T/C [2] 82% | viability, T/C [3] 81.6% | viability, T/C [4] 68.5% | viability, T/C (second compound 0.0316 µM, first compound 3.16 µM) 25.9% | viability, T/C [5] 37.9% | viability, T/C [6] 30.7% | viability, T/C [7] 25.7% | viability, T/C [8] 13.2%
1.64 µM: IC50 (second compound 0.0316 µM)
> 10 µM: IC50 (second compound 0.00316 µM)
< 0.0316 µM: IC50 (second compound 0.1 µM) | IC50 (second compound 0.316 µM) | IC50 (second compound 1 µM)
